# From ChEMBL document CHEMBL3885861, “Open TG-GATES”
# Organism: Rattus norvegicus
# Experiment: Open TG-GATES - Regimen: Daily Repeat
# Type: toxicity, organism-based, Sprague-Dawley
# Parameters: regimen Daily Repeat, gender Male, age 6 weeks
# Conditions: in vivo, po, 0 mg/kg, route gavage, dose level Control; for APTT / Bas / Eos / Fbg / Hb / Ht / Lym / MCH / MCHC / MCV / Mono / Neu / PT / Plat / RBC / Ret / WBC: tissue Blood; for KIDNEY_L / KIDNEY_R / KIDNEY_TOTAL: tissue Kidney; for LIVER: tissue Liver; for ALP / AST / BUN / CRE / Ca / Cl / DBIL / GLC / IP / K / LDH / Na / PL / RALB / TBIL / TC / TG / TP / gamma-GTP: tissue Plasma
structure (smiles),measurement,setting,value
COc1ccc2[nH]c([S+]([O-])Cc3ncc(C)c(OC)c3C)nc2c1 (stereo not drawn) [OMEPRAZOLE],TERMINAL_BW,"72 h, time 3 day",237.1 g
same,APTT,"72 h, time 3 day",19.5 s
same,Bas,"72 h, time 3 day",0%
same,Eos,"72 h, time 3 day",1.2%
same,Fbg,"72 h, time 3 day",210.6 mg/dL
same,Hb,"72 h, time 3 day",13.1 g/dL
same,Ht,"72 h, time 3 day",38%
same,Lym,"72 h, time 3 day",80.8%
same,MCH,"72 h, time 3 day",21.2 pg
same,MCHC,"72 h, time 3 day",34.4%
same,MCV,"72 h, time 3 day",61.6 fL
same,Mono,"72 h, time 3 day",3%
same,Neu,"72 h, time 3 day",14.8%
same,PT,"72 h, time 3 day",12.2 s
same,Plat,"72 h, time 3 day",128.5 x10_4/uL
same,RBC,"72 h, time 3 day",616.6 x10_4/ul
same,Ret,"72 h, time 3 day",5.4%
same,WBC,"72 h, time 3 day",91.3 x10_2/uL
same,KIDNEY_L,"72 h, time 3 day",1 g
same,KIDNEY_R,"72 h, time 3 day",1.1 g
same,KIDNEY_TOTAL,"72 h, time 3 day",2.1 g
same,LIVER,"72 h, time 3 day",11.7 g
same,ALP,"72 h, time 3 day",960.2 IU/L
same,AST,"72 h, time 3 day",66.4 IU/L
same,BUN,"72 h, time 3 day",15.2 mg/dL
same,CRE,"72 h, time 3 day",0.4 mg/dL
same,Ca,"72 h, time 3 day",10.7 mg/dL
same,Cl,"72 h, time 3 day",102.2 meq/L
same,DBIL,"72 h, time 3 day",0.07 mg/dL
same,GLC,"72 h, time 3 day",233.8 mg/dL
same,IP,"72 h, time 3 day",7 mg/dL
same,K,"72 h, time 3 day",3.6 meq/L
same,LDH,"72 h, time 3 day",162.8 IU/L
same,Na,"72 h, time 3 day",141.6 meq/L
same,PL,"72 h, time 3 day",144.4 mg/dL
same,RALB,"72 h, time 3 day",3.3 g/dL
same,TBIL,"72 h, time 3 day",0.1 mg/dL
same,TC,"72 h, time 3 day",72.2 mg/dL
same,TG,"72 h, time 3 day",91.6 mg/dL
same,TP,"72 h, time 3 day",5.6 g/dL
same,gamma-GTP,"72 h, time 3 day",1.2 IU/L
same,TERMINAL_BW,"[…], time 7 day",272.8 g
same,TERMINAL_BW,"[…], time 14 day",317.5 g
same,TERMINAL_BW,"[…], time 28 day",379.8 g
same,APTT,"[…], time 7 day",20.8 s
same,Bas,"[…], time 7 day",0%
same,Eos,"[…], time 7 day",1%
same,Fbg,"[…], time 7 day",226.4 mg/dL
same,Hb,"[…], time 7 day",13.9 g/dL
same,Ht,"[…], time 7 day",40.3%
same,Lym,"[…], time 7 day",79.2%
same,MCH,"[…], time 7 day",20.8 pg
same,MCHC,"[…], time 7 day",34.5%
same,MCV,"[…], time 7 day",60.2 fL
same,Mono,"[…], time 7 day",3%
same,Neu,"[…], time 7 day",16.2%
same,PT,"[…], time 7 day",11.9 s
same,Plat,"[…], time 7 day",124.2 x10_4/uL
same,RBC,"[…], time 7 day",669.6 x10_4/ul
same,Ret,"[…], time 7 day",4.8%
same,WBC,"[…], time 7 day",124.1 x10_2/uL
same,APTT,"[…], time 14 day",19.5 s
same,Bas,"[…], time 14 day",0%
same,Eos,"[…], time 14 day",1%
same,Fbg,"[…], time 14 day",215.4 mg/dL
same,Hb,"[…], time 14 day",14.7 g/dL
same,Ht,"[…], time 14 day",42.6%
same,Lym,"[…], time 14 day",79%
same,MCH,"[…], time 14 day",20.8 pg
same,MCHC,"[…], time 14 day",34.6%
same,MCV,"[…], time 14 day",59.9 fL
same,Mono,"[…], time 14 day",2.6%
same,Neu,"[…], time 14 day",16.2%
same,PT,"[…], time 14 day",12.3 s
same,Plat,"[…], time 14 day",123.5 x10_4/uL
same,RBC,"[…], time 14 day",711 x10_4/ul
same,Ret,"[…], time 14 day",3.9%
same,WBC,"[…], time 14 day",94.4 x10_2/uL
same,APTT,"[…], time 28 day",20.9 s
same,Bas,"[…], time 28 day",0%
same,Eos,"[…], time 28 day",1%
same,Fbg,"[…], time 28 day",228.8 mg/dL
same,Hb,"[…], time 28 day",15.6 g/dL
same,Ht,"[…], time 28 day",45%
same,Lym,"[…], time 28 day",83.2%
same,MCH,"[…], time 28 day",19.4 pg
same,MCHC,"[…], time 28 day",34.8%
same,MCV,"[…], time 28 day",55.9 fL
same,Mono,"[…], time 28 day",2%
same,Neu,"[…], time 28 day",13%
same,PT,"[…], time 28 day",12.4 s
same,Plat,"[…], time 28 day",110.6 x10_4/uL
same,RBC,"[…], time 28 day",804.8 x10_4/ul
same,Ret,"[…], time 28 day",2.2%
same,WBC,"[…], time 28 day",102.7 x10_2/uL
same,KIDNEY_L,"[…], time 7 day",1.2 g
same,KIDNEY_R,"[…], time 7 day",1.2 g
same,KIDNEY_TOTAL,"[…], time 7 day",2.3 g
same,KIDNEY_L,"[…], time 14 day",1.3 g
same,KIDNEY_R,"[…], time 14 day",1.3 g
same,KIDNEY_TOTAL,"[…], time 14 day",2.5 g
same,KIDNEY_L,"[…], time 28 day",1.3 g
same,KIDNEY_R,"[…], time 28 day",1.3 g
same,KIDNEY_TOTAL,"[…], time 28 day",2.6 g
same,LIVER,"[…], time 7 day",13.4 g
same,LIVER,"[…], time 14 day",13.5 g
same,LIVER,"[…], time 28 day",14.7 g
same,ALP,"[…], time 7 day",908.8 IU/L
same,AST,"[…], time 7 day",73.8 IU/L
same,BUN,"[…], time 7 day",16.8 mg/dL
same,CRE,"[…], time 7 day",0.4 mg/dL
same,Ca,"[…], time 7 day",10.8 mg/dL
same,Cl,"[…], time 7 day",100.8 meq/L
same,DBIL,"[…], time 7 day",0.09 mg/dL
same,GLC,"[…], time 7 day",205.2 mg/dL
same,IP,"[…], time 7 day",7.3 mg/dL
same,K,"[…], time 7 day",3.9 meq/L
same,LDH,"[…], time 7 day",225.8 IU/L
same,Na,"[…], time 7 day",140 meq/L
same,PL,"[…], time 7 day",168.4 mg/dL
same,RALB,"[…], time 7 day",3.3 g/dL
same,TBIL,"[…], time 7 day",0.1 mg/dL
same,TC,"[…], time 7 day",78.8 mg/dL
same,TG,"[…], time 7 day",144.6 mg/dL
same,TP,"[…], time 7 day",5.7 g/dL
same,gamma-GTP,"[…], time 7 day",0.8 IU/L
same,ALP,"[…], time 14 day",734.6 IU/L
same,AST,"[…], time 14 day",61.4 IU/L
same,BUN,"[…], time 14 day",17.2 mg/dL
same,CRE,"[…], time 14 day",0.5 mg/dL
same,Ca,"[…], time 14 day",10.6 mg/dL
same,Cl,"[…], time 14 day",102 meq/L
same,DBIL,"[…], time 14 day",0.08 mg/dL
same,GLC,"[…], time 14 day",222.6 mg/dL
same,IP,"[…], time 14 day",6.5 mg/dL
same,K,"[…], time 14 day",3.4 meq/L
same,LDH,"[…], time 14 day",171 IU/L
same,Na,"[…], time 14 day",139.8 meq/L
same,PL,"[…], time 14 day",139.6 mg/dL
same,RALB,"[…], time 14 day",3.4 g/dL
same,TBIL,"[…], time 14 day",0.1 mg/dL
same,TC,"[…], time 14 day",69 mg/dL
same,TG,"[…], time 14 day",95.4 mg/dL
same,TP,"[…], time 14 day",5.7 g/dL
same,gamma-GTP,"[…], time 14 day",1 IU/L
same,ALP,"[…], time 28 day",583 IU/L
same,AST,"[…], time 28 day",64.8 IU/L
same,BUN,"[…], time 28 day",16.6 mg/dL
same,CRE,"[…], time 28 day",0.5 mg/dL
same,Ca,"[…], time 28 day",10.7 mg/dL
same,Cl,"[…], time 28 day",102.6 meq/L
same,DBIL,"[…], time 28 day",0.078 mg/dL
same,GLC,"[…], time 28 day",235.4 mg/dL
same,IP,"[…], time 28 day",5.8 mg/dL
same,K,"[…], time 28 day",3.8 meq/L
same,LDH,"[…], time 28 day",142.8 IU/L
same,Na,"[…], time 28 day",141.2 meq/L
same,PL,"[…], time 28 day",137.8 mg/dL
same,RALB,"[…], time 28 day",3.4 g/dL
same,TBIL,"[…], time 28 day",0.1 mg/dL
same,TC,"[…], time 28 day",67.8 mg/dL
same,TG,"[…], time 28 day",104.8 mg/dL
same,TP,"[…], time 28 day",6 g/dL
